Assay results published in patent US20120142771A1, “BIPHENYLACETAMIDE DERIVATIVE” (Dainippon Sumitomo Pharma Co., Ltd., priority 2008, published 2012).

Key:
[1] = tested on: subcutaneously pentetrazol-injected model (scPTZ); test: Subcutaneously pentetrazol-injected model (scPTZ) test; type: in vivo, mice; conditions: pentetrazol 85 mg/kg s.c. after 1 hour; for responders at 100 mg/kg / responders at 50 mg/kg: Mus musculus, po, 1 h, read-out: scPTZ (positive number/tested number) (converted); for responders at 100 mg/kg / scPTZ (positive number/tested number) / responders at 50 mg/kg: Slc: ddY male mice, 3 per group, observed 30 minutes for clonic convulsion
Text: In order to evaluate the antiepileptic activity of each drug, maximum electroshock seizure (MES) model, subcutaneously pentetrazol-injected model (scPTZ), and amygdala kindling model in rats were used because they show a good clinical prediction. […] Test with Subcutaneously Pentetrazol-Injected Model (scPTZ) Similar to Test 1, Test 2 evaluates the anticonvulsant action of medicaments. However, unlike Test 1, animal model used herein represents the clinical phenotypes of generalized absence seizure and myoclonic seizure. Test compounds (50 or 100 mg/kg) were orally administered to Slc: ddY male mice (3 mice in each group, body weight 20-30 g). After an hour, pentetrazol (85 mg/kg) was subcutaneously administered. […] To the control mice, 0.5% tragacanth solution or 0.5% methylcellulose solution was administered.

[2] = tested on: maximum electroshock seizure (MES) model; test: Maximum electroshock seizure (MES) model test; type: in vivo, mice; conditions: for MES (positive number/tested number) / responders at 100 mg/kg / responders at 50 mg/kg: Slc: ddY male mice, 3 per group, electrical stimulation 1 hour after administration, inhibition of hind limb extension; for responders at 100 mg/kg / responders at 50 mg/kg: Mus musculus, po, 1 h, read-out: MES (positive number/tested number) (converted)
Text: In order to evaluate the antiepileptic activity of each drug, maximum electroshock seizure (MES) model, subcutaneously pentetrazol-injected model (scPTZ), and amygdala kindling model in rats were used because they show a good clinical prediction.
Test 1: Test with Maximum Electroshock Seizure (MES) Model
Test 1 evaluates the anticonvulsant action of medicaments. Animal model used herein represents the clinical phenotypes of generalized tonic seizure and secondarily generalized tonic-clonic seizure. Test compounds (50 or 100 mg/kg) were orally administered to Slc: ddY male mice (3 mice in each group, body weight 20-30 g). After an hour of administration, their corneas were electrically stimulated (60 Hz, 25 mA, 0.2 second) to induce tonic convulsion (tonic extensor in their hind limbs). […] To the control mice, 0.5% tragacanth solution or 0.5% methylcellulose solution was administered.

SMILES | responders at 100 mg/kg ([1]; 100 mg/kg oral) [%] | responders at 100 mg/kg ([2]; 100 mg/kg oral) [%] | responders at 50 mg/kg ([1]; 50 mg/kg oral) [%] | responders at 50 mg/kg ([2]; 50 mg/kg oral) [%] | also measured
NC(=O)C(O)c1ccccc1-c1ccccc1F (single isomer, unassigned) [Example 213, 2-(2′-Fluorobiphenyl-2-yl)-2-hydroxyacetamide] | 33.3 | 100 |  |  | MES (positive number/tested number) ([2]; 50 mg/kg oral): 0/3
NC(=O)C(O)c1ccccc1-c1ccccc1F (single isomer, unassigned) [Example 214, 2-(2′-Fluorobiphenyl-2-yl)-2-hydroxyacetamide] |  |  |  |  | scPTZ (positive number/tested number) ([1]; 100 mg/kg oral): 1/3; MES (positive number/tested number) ([2]; 50 mg/kg oral): 2/3; MES (positive number/tested number) ([2]; 100 mg/kg oral): 3/3
NC(=O)C(O)c1ccccc1-c1cc(F)cc(Cl)c1 (single isomer, unassigned) [Example 217, 2-(3′-Chloro-5′-fluorobiphenyl-2-yl)-2-hydroxyacetamide] |  |  |  |  | scPTZ (positive number/tested number) ([1]; 50 mg/kg oral): 1/3; scPTZ (positive number/tested number) ([1]; 100 mg/kg oral): 3/3; MES (positive number/tested number) ([2]; 50 mg/kg oral): 2/3
NC(=O)C(O)c1ccccc1-c1cc(F)cc(Cl)c1 (single isomer, unassigned) [Example 218, 2-(3′-Chloro-5′-fluorobiphenyl-2-yl)-2-hydroxyacetamide] |  | 100 |  |  | scPTZ (positive number/tested number) ([1]; 50 mg/kg oral): 1/3; scPTZ (positive number/tested number) ([1]; 100 mg/kg oral): 2/3; MES (positive number/tested number) ([2]; 50 mg/kg oral): 1/3
NC(=O)C(O)c1ccccc1-c1ccccc1Cl (single isomer, unassigned) [Example 220, 2-(2′-chlorobiphenyl-2-yl)-2-hydroxyacetamide] | 100 | 100 | 33.3 | 100 | 
CNC(=O)Cc1ccccc1-c1ccc(C(F)(F)F)cc1 [Example 2, N-methyl-2-[4′-(trifluoromethyl)biphenyl-2-yl]acetamide] | 0 | 100 |  | 100 | 
CN(C)C(=O)Cc1ccccc1-c1ccc(C(F)(F)F)cc1 [Example 3, N,N-dimethyl-2-[4′-(trifluoromethyl)biphenyl-2-yl]acetamide] | 33.3 | 100 |  | 100 | 
NC(=O)Cc1ccccc1-c1cccc(C(F)(F)F)c1 [Example 4, 2-[3′-(trifluoromethyl)biphenyl-2-yl]acetamide] | 66.7 | 66.7 | 0 | 0 | 
CNC(=O)Cc1ccccc1-c1cccc(C(F)(F)F)c1 [Example 5, N-methyl-2-[3′-(trifluoromethyl)biphenyl-2-yl]acetamide] | 66.7 | 100 | 33.3 | 0 | 
NC(=O)Cc1ccccc1-c1ccccc1C(F)(F)F [Example 6] | 33.3 | 100 |  | 0 | 
CNC(=O)Cc1ccccc1-c1ccccc1C(F)(F)F [Example 7, N-methyl-2-[2′-(trifluoromethyl)biphenyl-2-yl]acetamide] | 66.7 | 100 | 0 | 66.7 | 
CCNC(=O)Cc1ccccc1-c1ccccc1C(F)(F)F [Example 8, N-ethyl-2-[2′-(trilluoromethyl)biphenyl-2-yl]acetamide] | 66.7 | 100 | 0 | 0 | 
CN(C)C(=O)Cc1ccccc1-c1ccccc1C(F)(F)F [Example 9] | 66.7 | 33.3 | 0 |  | 
NC(=O)Cc1ccccc1-c1ccc(Cl)cc1 [Example 10] | 33.3 | 100 |  | 33.3 | 
CNC(=O)Cc1ccccc1-c1ccc(Cl)cc1 [Example 11] | 33.3 | 100 |  | 0 | 
CN(C)C(=O)Cc1ccccc1-c1ccc(Cl)cc1 [Example 12] | 33.3 | 100 |  | 0 | 
CNC(=O)Cc1ccccc1-c1cccc(Cl)c1 [Example 14] | 0 | 100 |  | 0 | 
CN(C)C(=O)Cc1ccccc1-c1cccc(Cl)c1 [Example 15] | 0 | 66.7 |  | 0 | 

SMILES | responders at 100 mg/kg ([1]; 100 mg/kg oral) [%] | responders at 100 mg/kg ([2]; 100 mg/kg oral) [%] | responders at 50 mg/kg ([1]; 50 mg/kg oral) [%] | responders at 50 mg/kg ([2]; 50 mg/kg oral) [%] | also measured
CNC(=O)Cc1ccccc1-c1ccccc1Cl [Example 17] | 33.3 | 0 |  |  | 
CCNC(=O)Cc1ccccc1-c1ccccc1Cl [Example 18] | 33.3 | 100 |  | 0 | 
NC(=O)Cc1ccccc1-c1cccc(Cl)c1Cl [Example 19] | 0 | 66.7 |  | 33.3 | 
NC(=O)Cc1ccccc1-c1cccc(F)c1F [Example 20, 2-(2′,3′-difluorobiphenyl-2-yl)acetamide] | 66.7 | 100 | 66.7 | 66.7 | anticonvulsant action in subcutaneously pentetrazol-injected model (scPTZ) test ([1]; mice, oral 50 or 100 mg/kg): anticonvulsant action was observed; anticonvulsant action in maximum electroshock seizure (MES) model test ([2]; mice, oral 50 or 100 mg/kg, 1 hour after administration): anticonvulsant action was observed
NC(=O)Cc1ccccc1-c1ccc(F)c(F)c1 [Example 21, 2-(3′,4′-difluorobiphenyl-2-yl)acetamide] | 100 | 100 | 0 | 33.3 | 
NC(=O)Cc1ccccc1-c1ccc(F)cc1 [Example 22, 2-(4′-fluorobiphenyl-2-yl)acetamide] | 33.3 | 100 |  | 66.7 | 
CNC(=O)Cc1ccccc1-c1ccc(F)cc1 [Example 23, 2-(4′-fluorobiphenyl-2-yl)-N-methylacetamide] | 33.3 | 100 |  | 100 | 
CN(C)C(=O)Cc1ccccc1-c1ccc(F)cc1 [Example 24] | 0 | 100 |  | 33.3 | 
CNC(=O)Cc1ccccc1-c1cccc(F)c1 [Example 26, 2-(3′-fluorobiphenyl-2-yl)-N-methylacetamide] | 0 | 100 |  | 100 | 
CCNC(=O)Cc1ccccc1-c1cccc(F)c1 [Example 27] | 33.3 | 100 |  | 0 | 
CNC(=O)Cc1ccccc1-c1ccccc1F [Example 28, 2-(2′-fluorobiphenyl-2-yl)-N-methylacetamide] | 66.7 | 100 | 0 | 0 | 
CCNC(=O)Cc1ccccc1-c1ccccc1F [Example 29] | 33.3 | 66.7 |  | 0 | 
CN(C)C(=O)Cc1ccccc1-c1ccccc1F [Example 30, 2-(2′-fluorobiphenyl-2-yl)-N,N-dimethylacetamide] | 66.7 | 100 | 33.3 | 0 | 
CNC(=O)Cc1ccccc1-c1cccc(C)c1 [Example 31, N-methyl-2-(3′-methylbiphenyl-2-yl)-acetamide] | 66.7 | 0 | 33.3 |  | 
NC(=O)Cc1ccc(C(F)(F)F)cc1-c1ccccc1 [Example 32] | 0 | 100 |  | 33.3 | 
CNC(=O)Cc1ccc(C(F)(F)F)cc1-c1ccccc1 [Example 33] | 33.3 | 66.7 |  | 33.3 | 
NC(=O)Cc1cc(OC(F)(F)F)ccc1-c1ccccc1 [Example 34] | 66.7 | 0 | 33.3 |  | 
CSc1cccc(-c2ccccc2CC(N)=O)c1 [Example 94] | 33.3 |  |  |  | 
